Tests used:
human 5-HT3 receptor = human 5-HT3 receptor (Homo sapiens (Human), UniProt P46098); assay: Radioligand binding assay (SPA format), affinity for the human 5-HT3 receptor; settings: [9-methyl-3H]BRL-43694 10 nM, human 5-HT3 receptor membranes, Cheng Prusoff; read-out: h5-HT3A Ki
Method: The relative affinity of the various compounds for the human 5-HT3 receptor was measured in a radioligand binding assay, using a scintillation proximity assay (SPA) format. Test compounds were dissolved to 10 mM in 100% DMSO, then serially diluted at 10× assay concentrations in 100% DMSO in 96-well polypropylene plates and further diluted to 4× assay concentrations with the assay buffer. Samples were incubated in 50 mM Tris-HCl, pH 7.5, 3 mM MgCl2, 1 mM EDTA and 10% DMSO with 10 nM [9-methyl-^3H]BRL-43694 (Perkin Elmer), 3 μg of human 5-HT3 receptor membranes (Perkin Elmer) and 0.5 mg/mL SPA beads (WGA PVT, Amersham Biosciences) in a final volume of 0.2 mL. Binding reactions were set up in wells of PicoPlates-96 (Perkin Elmer) by adding consecutively 50 μL of each competing compound or buffer, SPA beads, the radioligand and 5-HT3 receptor membranes. After an overnight incubation at room temperature on a Nutator mixer, plates were centrifuged for 15 min at 1,500 rpm, followed by incubation in the dark for 30 min. Radioactivity was counted in the TopCount microplate counter (Perkin Elmer) for 5 min. Total binding control contained compound dilution buffer only; nonspecific binding was determined in the presence of 30 μM MDL-72222. Specific binding was determined by subtracting nonspecific binding from total binding. All experiments were performed in duplicate using ten concentrations of competing ligand, with ondansetron included as a control in every run. IC50 values were determined from specific binding data using XLfit4.1 curve fitting software from IDBS Ltd. The inhibition constant (Ki) was calculated from the Cheng Prusoff equation: (Ki=IC50/(1+(L/KD)), where L=concentration of radioligand in the assay, and KD=affinity of the radioligand for the receptor.

h5-HT3A receptor = h5-HT3A receptor (Homo sapiens (Human), UniProt P46098); assay: Agonist activity at recombinant human 5-HT3A receptors, [Ca2+]i in HEK293 cells; format: cell-based; settings: at 1 μM, normalized to the response of 5-HT (5-HT response = 100% at 3 μM); NR = no response
Method: Human embryonic kidney (HEK293) cells expressing the h5-HT3A receptor subunit were seeded directly into poly-D-lysine coated, black-walled, clear bottomed, 96 well plates with approximately 1×10^5 cells per well. After 48 hrs incubation in DMEM growth media (100 μL), cells were washed twice (each 200 μL) in Hank's balanced salt solution (Invitrogen) before incubation (1 hr) with Fluo-4 acetoxymethyl (AM) ester (100 μL, 2.5 μM; Molecular Probes). Cells were washed twice (each 200 μL) in Hank's balanced salt solution and incubated for a further 30 min in Hank's balanced salt solution (100 μL) prior to assay (25° C.). Alteration in [Ca^2+]i was measured (relative fluorescence units [RFU]) using a Flexstation (excitation 488 nm and emission 515 nm; frequency of recording 3 sec). After recording for at least 80 sec, vehicle (Hank's balanced salt solution) or drug was automatically administered to the well (50 μL). Baseline was calculated from the 5 data points immediately prior to the first drug administration and the maximum response was that achieved over the 240 sec following drug administration. In all experiments the muscarinic receptor agonist carbachol (1 mM) was added 240 sec after the test drug administration.

5-HT3 receptors = 5-HT3 receptors (Mus musculus (Mouse), UniProt P23979); assay: von Bezold-Jarisch model in vivo: inhibition of 5-HT induced bradycardia; settings: 3 mg/kg oral, 60 min before 5-HT 0.1 mg/kg IV, anesthetized male ICR mice; highest oral dose tested
Method: This is a well characterized and widely used model to assess 5-HT3 receptor function in vivo (King et al., 5-Hydroxtryptamine-3 Receptor Antagonists, CRC Press, pp. 74-75 (1993), which is hereby incorporated by reference in its entirety). Certain compounds (Table 1) were evaluated for their ability to inhibit serotonin induced bradycardia in vivo in the mouse (Saxena et al., Arch. Int. Pharmacodyn., 277:235-252 (1985), which is hereby incorporated by reference in its entirety). Test substances and vehicle [2% Tween 80] were each administered orally to a group of 5 male ICR mice each weighing 24±2 g. A dosing volume of 10 mL/kg was used. Sixty minutes later, 5-HT (0.1 mg/kg IV)-induced bradycardia was recorded in urethane (2250 mg/kg IP, given 10 minutes before 5-HT)-anesthetized animals.

Sequence of human 5-HT3 receptor (P46098 24-478): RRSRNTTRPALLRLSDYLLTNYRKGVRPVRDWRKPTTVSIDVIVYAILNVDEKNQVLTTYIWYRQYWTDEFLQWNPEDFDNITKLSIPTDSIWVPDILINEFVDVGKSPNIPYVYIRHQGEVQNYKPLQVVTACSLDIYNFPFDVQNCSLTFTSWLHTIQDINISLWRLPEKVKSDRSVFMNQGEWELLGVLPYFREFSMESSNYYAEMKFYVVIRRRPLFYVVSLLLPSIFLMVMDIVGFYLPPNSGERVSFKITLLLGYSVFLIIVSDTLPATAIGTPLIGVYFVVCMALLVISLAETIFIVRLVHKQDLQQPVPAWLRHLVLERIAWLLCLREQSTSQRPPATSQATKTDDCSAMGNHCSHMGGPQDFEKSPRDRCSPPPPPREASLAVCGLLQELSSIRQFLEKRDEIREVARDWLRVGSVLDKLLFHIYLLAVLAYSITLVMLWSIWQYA
Sequence of h5-HT3A receptor (P46098 24-478): as above
Sequence of 5-HT3 receptors (P23979 24-489): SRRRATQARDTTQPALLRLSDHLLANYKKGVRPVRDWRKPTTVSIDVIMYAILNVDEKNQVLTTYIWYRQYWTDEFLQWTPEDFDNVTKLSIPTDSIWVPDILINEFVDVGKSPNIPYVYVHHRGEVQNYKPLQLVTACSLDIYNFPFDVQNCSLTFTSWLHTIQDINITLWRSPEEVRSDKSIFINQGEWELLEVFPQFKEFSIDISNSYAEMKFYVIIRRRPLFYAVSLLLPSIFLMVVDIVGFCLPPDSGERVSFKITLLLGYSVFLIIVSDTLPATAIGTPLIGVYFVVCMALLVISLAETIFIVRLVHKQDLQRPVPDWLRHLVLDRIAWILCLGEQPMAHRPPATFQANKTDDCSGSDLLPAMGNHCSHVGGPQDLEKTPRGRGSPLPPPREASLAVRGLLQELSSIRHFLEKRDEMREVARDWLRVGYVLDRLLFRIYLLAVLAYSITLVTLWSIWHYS

Compound | Ki (human 5-HT3 receptor) | HEK293 h5-HT3A % agonist response (h5-HT3A receptor) | Inhibition of 5-HT Induced Bradycardia in Mice (5-HT3 receptors)
O=C1c2cccc3cnn(c23)CCN1[C@@H]1CN2CCC1CC2 [Example 7, (S)-7-(quinuclidin-3-yl)-8,9-dihydro-[1,4]diazepino[6,7,1-hi]indazol-6(7H)-one] | 8 nM | 19% | 77% @ 3 mg/kg
O=C1c2cccc3[nH]nc(c23)CN1CC12CCN(CC1)CC2 [Example 29, 4-(quinuclidin-4-ylmethyl)-3,4-dihydropyrazolo[3,4,5-de]isoquinolin-5(1H)-one] | 2 nM | 1% | 87% @ 3 mg/kg

Reference: patent US9045501B2, “5-HT3 receptor modulators, methods of making, and use thereof” (Albany Molecular Research, Inc., priority 2009, dated 2015)
